Test results as given in US9938222B2 (BRISTOL-MYERS SQUIBB COMPANY, priority 2014, dated 2018).

Tests used:
[1] = molecular target: human GPR120 (Homo sapiens (Human), UniProt Q5NUL3); test: GPR120 pERK AlphaScreen SureFire Assay (human GPR120 pERK assay); type: cell-based; settings: CHO cells stably transfected with short form of human GPR120
Summary of the method: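 CHOA12 cells stably expressing short-form human GPR120, serum-starved 2 h, then stimulated 7 min at 37° C with compound (33.33 μM to 0.56 nM, 11-point). Phospho-ERK1/2 read by AlphaScreen SureFire in lysates. Activation scaled between DMSO and 50 μM linolenic acid; EC50 from a 4-parameter logistic fit.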

[2] = test system: C57BL/6 mice; test: Acute Oral Glucose Tolerance Test; type: in vivo; settings: dosed at 30 mg/kg orally 60 min before glucose challenge (2 g/kg), AUC t=0-120 min compared to vehicle
Procedure: In Vivo GPR120 Assays 1) Acute Oral Glucose Tolerance Test
C57BL/6 mice were housed individually and fed a standard rodent chow diet. At approximately 11 weeks age, after a 5 h fast, these mice were orally treated with vehicle or test compounds 60 min before a glucose challenge (2 g/kg). Blood glucose levels were determined from tail bleeds taken at −60, 0, 15, 30, 60 and 120 min after the glucose challenge. […] This AUC for compound treatment is compared to vehicle treatment.

human GPR120, sequence (Q5NUL3 whole entry): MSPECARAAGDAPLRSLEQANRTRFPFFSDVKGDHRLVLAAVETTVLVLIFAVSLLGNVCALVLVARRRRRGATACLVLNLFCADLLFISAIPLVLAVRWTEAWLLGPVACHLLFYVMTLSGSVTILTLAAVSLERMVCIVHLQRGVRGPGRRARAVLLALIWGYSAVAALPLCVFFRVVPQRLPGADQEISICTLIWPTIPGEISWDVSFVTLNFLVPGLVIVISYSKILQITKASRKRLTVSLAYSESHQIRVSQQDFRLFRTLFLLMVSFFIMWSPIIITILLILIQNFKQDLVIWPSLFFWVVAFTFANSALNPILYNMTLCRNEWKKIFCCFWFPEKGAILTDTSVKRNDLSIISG

SMILES	EC50 [1] [nM]	reduced glucose AUC [2] [%]
O=C(O)[C@H]1C[C@@H]1COc1ccc(-c2cc(Oc3cccc(F)c3)cc(F)c2F)cc1F (single isomer, unassigned) [Example 105]	140	55
O=C(c1ccccc1)c1cccc(-c2ccc(OC[C@@H]3C[C@H]3C(=O)O)cc2)c1 (racemic) [Example 118, Trans-2-(((3′-benzoyl-[1,1′-biphenyl]-4-yl)oxy)methyl) cyclopropanecarboxylic acid]	460	
CC(C)Oc1ccc(Cl)c(-c2ccc(OC[C@@H]3C[C@H]3C(=O)O)c(F)c2)c1 (racemic) [Example 18, Trans-2-(((2′-chloro-3-fluoro-5′-isopropoxy-[1,1′-biphenyl]-4yl)oxy)methyl) cyclopropanecarboxylic acid]	210	
O=C(O)[C@@H]1CC1COc1ccc(-c2cc(Oc3cccc(F)c3)ccc2F)cc1F (stereo partly drawn) [Example 97]	70	
O=C(O)[C@@H]1C[C@H]1COc1ccc(-c2cc(Cl)cc(OC(F)(F)F)c2)cc1 (racemic) [Example 48, Trans-2-(((3′-chloro-5′-(trifluoromethoxy)-[1,1′-biphenyl]-4-yl)oxy)methyl)cyclopropanecarboxylic acid]	760	
COCc1cc(OC(C)C)cc(-c2ccc(OC[C@@H]3C[C@H]3C(=O)O)cc2)c1 (racemic) [Example 86, Trans-2-(((3′-isopropoxy-5′-(methoxymethyl)-[1,1′-biphenyl]-4-yl)oxy)methyl) cyclopropanecarboxylic acid]	3620	
Cc1ccc(Oc2ccc(F)c(-c3ccc(OCC4CC4C(=O)O)c(F)c3)c2)cc1F (racemic) [Example 100, Trans-2-(((2′,3-difluoro-5′-(3-fluoro-4-methylphenoxy)-[1,1′-biphenyl]-4-yl)oxy)methyl)cyclopropanecarboxylic acid]	260	
CC(C)Oc1ccc(F)c(-c2ccc(C[C@H]3C[C@@H]3CC(=O)O)cc2)c1 (racemic) [Example 33, Trans-2-(2-((2′-fluoro-5′-isopropoxy-[1,1′-biphenyl]-4-yl)methyl)cyclopropyl)acetic acid]	60	
CC(C)Oc1ccc(F)c(-c2ccc(CC[C@@H]3C[C@H]3C(=O)O)cc2)c1 (single isomer, unassigned) [Example 31]	640	
O=C(O)[C@@H]1C[C@H]1CCc1ccc(-c2cccc(Oc3ccccc3)c2)cc1 (racemic) [Example 75, Trans-2-(2-(3′-phenoxy-[1,1′-biphenyl]-4-yl)ethyl) cyclopropanecarboxylic acid]	180	
CC(C)Oc1cc(F)c(F)c(-c2ccc(OC[C@H]3C[C@@H]3C(=O)O)c(F)c2)c1 [Example 67, (1S,2S)-2-(((2′,3,3′-Trifluoro-5′-isopropoxy-[1,1′-biphenyl]-4-yl)oxy)methyl)cyclopropanecarboxylic acid]	230	
CC(C)Sc1ncc(C(F)(F)F)cc1-c1ccc(OC[C@@H]2C[C@H]2C(=O)O)cc1 (racemic) [Example 69, Trans-2-((4-(2-(isopropylthio)-5-(trifluoromethyl)pyridin-3-yl)phenoxy)methyl)cyclopropanecarboxylic acid]	10800	
Cc1ccc(Oc2ccc(F)c(-c3ccc(OC[C@@H]4C[C@H]4C(=O)O)c(F)c3)c2)cn1 (racemic) [Example 103, Trans-2-(((2′,3-difluoro-5′-((6-methylpyridin-3-yl)oxy)-[1,1′-biphenyl]-4-yl)oxy)methyl)cyclopropanecarboxylic acid]	170	
CC(C)Oc1ccc(F)c(-c2ccc(CC[C@H]3C[C@H]3C(=O)O)cc2)c1 (single isomer, unassigned) [Example 16]	420	
